Measurements taken from article PMC10720369 (Frontiers in Plant Science, 2023).

Tested on: ScAMT3;3
Details: labelled compound; 0-500 µM 15N-NH4+; 35-d-old N-starved plants; line 35S::ScAMT3;3 by results and Figure 4C (methods b28 say proScAMT3;3 line); residual qko uptake present; NH3 may be the transported

Km: 271 µM
SMILES: N [NH4+]
